According to patent US9598463B2, “Mucin hypersecretion inhibitors and methods of use” (BIOMARCK PHARMACEUTICALS, LTD., priority 2005, dated 2017):
Where two headings read alike, the source gives them in different places. Marks after values point to notes of the source that are not given here.

Legend:
[1] = system: HBE1 cells; test: PMA-induced mucin hypersecretion in human bronchial epithelial cells (air/liquid interface, MUC5A ELISA); assay type: cell-based; conditions: pretreatment with 25 μM peptide, then 0.5 μM PMA
Experimental: HBE1 is a papilloma virus-transformed human bronchial epithelial cell line capable of mucin secretion when cultured in air/liquid interface. HBE1 cells were cultured in the air/liquid interface as described previously (Li et al, J. Biol. Chem., volume 276, pp 40982-40990, 2001). Briefly, HBE1 cells were cultured in air/liquid interface by seeding an appropriate number of cells in 12-well Transwell clear culture inserts (Costar, Cambridge, Mass.) that were thinly coated with rat tail collagen, type I (Collaborative Biomedical, Bedford, Mass.). Cells were initially cultured submerged in medium in a humidified 95% air, 5% CO2 environment for 5-7 days until nearly confluent. At that time, the air/liquid interface was created by removing the apical medium and feeding cells basalaterally. Medium was renewed daily thereafter. Cells were cultured for an additional 14 days to allow full differentiation. The accumulated mucin at the apical surface of the cells was removed by washing with phosphate-buffered saline, pH 7.2. To collect the baseline mucin secretion, cells were incubated for 30 min with medium alone and secreted mucin in the apical medium was collected, and quantitated by ELISA. To determine the mucin hypersecretion induced by a mucin secretagogue, cells were exposed to medium containing 0.5 μM phorbol myristate acetate, (PMA) for 30 min. and mucin was collected and quantitated by ELISA. […] Six wells were used for each test peptides and for each control. Secreted mucin in the apical medium was collected and quantitated by sandwich ELISA method using alkaline phosphatase-conjugated mucin (MUC5A) specific antibody (Zymed Laboratories, San Francisco, Calif.).

[2] = Stability of test peptides in human plasma (LC/MS/MS, first order half-life); assay type: in vitro ADME; conditions: human plasma, 37° C.
Experimental: Various test peptides in human plasma, human BALF, and CF patient mucus were analyzed to determine the susceptability of the test peptide to proteolysis in the biological fluids. […] The samples were analyzed either on the same day as received or stored at −20° C. and analyzed within the following two days.
Fresh human blood samples were collected in citrate buffered vacuutrainers (in absence of EDTA or heparin). Red blood cells (RBC) were removed by centrifugation of the blood at 4000×g for 10 min at 4° C. Plasma aliquots (0.9 mL) were then spiked with 0.1 mL of 0.5 mg/mL solution of the test peptide in 75 mM sodium acetate buffer at pH 7.0 and incubated in a water bath maintained at 37° C. Duplicate aliquots of 10 μL, were withdrawn at 5, 15, 30, 60, and 180 minutes intervals and immediately “quenched” with 990 μL of a solution consisting of 50% acetonitrile+50% water containing 0.2% formic acid. The samples were then subjected to liquid chromatography-mass spectrometry (LCMS) analysis.
All samples were analyzed using LC/MS/MS (MDS/SCIEX, API 4000 Model). Chromatography was performed using a Phenomenex Luna C18 column, while mass spectrometry was performed using positive ion electrospray ionization.
Calibration standards were analyzed by LCMS at concentrations of 0.100 μg/mL, 1.00 μg/mL, 10.0 μg/mL, and 100 μg/mL for each peptide, with the exception of the calibration standards for peptides myr-PEPTIDE 106, PEPTIDE 106, PEPTIDE 106-NH2, PEPTIDE 106, and cyclic peptide, cyc-PEPTIDE 106, in human mucus, which were analyzed at concentrations of 0.100 μg/mL, 1.00 μg/mL, 10.0 μg/mL, and 75 μg/mL. Standards were prepared in 1% human BALF, plasma, or mucus in 50/50 water/acetonitrile mixture containing 0.2% formic acid. The instrument response values for each set of standards were fit using a 1/(concentration)^2 linear least-squares line. Sample concentrations were calculated using the slope and intercept of this line. Concentrations outside of the calibration range were determined by extrapolating the calibration curve. […]
For the analysis of peptide concentration in plasma, duplicate calibration standards were analyzed at a concentration of 25 μg/mL and 50 μg/mL for each peptide. The instrument response values for each set of standards were fit through an intercept of 0 using an unweighted, linear least-squares line. Sample concentrations were calculated using the slope and intercept of this line. Concentrations outside of the calibration range were determined by extrapolating the calibration curve.
Watson fits the log transformed data with a least-squares line to determine parameters such as Cmax (maximum concentration), intercept, rate constant, slope, and T1/2 (half-life). The resulting kinetic parameters were based on the linear fit, not the actual concentration values.
Time-zero calibration standards in solution were not included as part of the kinetic profiles.

[3] = system: methacholine-induced mucin hypersecretion; test: Methacholine-induced mucin hypersecretion in ovalbumin-sensitized mouse model of asthma, BAL mucin ELISA (Balb/C mice); assay type: in vivo; conditions: for Mucin Secretion % control: Table II, peptides at 100 μM, 50 μL intratracheal 15 min before methacholine; for Mucin Secretion % of control: Table IV
Method in brief: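 BP2 or Balb/C mice immunized s.c. twice weekly with 1 μg ovalbumin, aerosol ovalbumin challenge after 14 days, then aerosolized methacholine 72 h later. Anti-MUC5AC ELISA on cell-free BAL, minus non-immune antibody signal, normalized to Bradford protein; 6 mice per group.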

[4] = 2nd experiment, read-out: Plasma t1/2 (2nd exp.) (converted)

Substance | Block of PMA-induced increase in mucin secretion [1] [%] | half-life [2, 4] [min] | Mucin Secretion % control [3] [% control] | half-life ([2]; 1st experiment, read-out: Plasma t1/2 (1st exp.) (converted)) [min] | Mucin Secretion % of control ([3]; peptide 10 μM) | Mucin Secretion % of control ([3]; peptide 100 μM)
Ac-GAQFSKTAAK-OH [Ac-peptide 106] | 100 | 1.8 | 21.5 |  |  | 
H-GAQFSKTAAK-OH [peptide 106, GAQFSKTAAK] |  | 9 | 33.8 | 16.8 | 64* % of control | 40** % of control
